Measurements as given in patent US5905085A, “Trans cyclopentanyl deazaadenyl analogs useful as immunosuppressants” (Hoechst Marion Roussel, Inc., priority 1997, dated 1999).
pIC50: −log10 of the molar value. Structures can show the parent of a compound that is named as a salt.

Legend:
[1] = test system: Tumor Necrosis Factor alpha; assay: Inhibition of Tumor Necrosis Factor alpha in LPS-stimulated PBMC (ELISA); assay type: cell-based; conditions: human PBMC adherent cells, 1 μg/ml LPS from E. coli, 18 hours; read-out: IC50 (TNF-α inhibition)
Protocol: Peripheral blood mononuclear cells (PBMC) are isolated from venous blood collected from healthy volunteers in sodium citrate (5 ml of 3.6% sodium citrate for 45 ml of blood) by density gradient centrifugation of 5 minutes at 1500 rpm. The PBMC are resuspended in about 10 ml of RPMI-1640 with antibiotics. Approximately 2×10^6 cells of PBMC are added to tissue culture plates, incubated for 45-60 minutes at 37° C. with 5% CO2, aspirated, and washed twice by adding about 0.5 ml fresh RPMI-1640 with 10% non-mitogenic FBS (RPMI complete) and shaking for 15 to 30 seconds. 1.0 ml RPMI-1640 is added per well to the remaining adherent cells, which are pretreated with test compound solution about 15 minutes prior to endotoxin stimulation (1 μg/ml lipopolysaccharide from E. coli or solvent concentrations equal to those of test compounds.
Cultures are incubated for 18 hours t 37° C. in 5% CO2. Supernatants are tested from TNF-a using a commercial ELISA kit (Cistron, Pine Brook, N.J.). The IC50 is determined using SOFTmax software program.

[2] = test system: endotoxin-induced septic shock in CFl mice; assay: Regulation of endotoxin lethality (mouse endotoxin lethality model); assay type: in vivo; conditions: 100 mg/kg i.p., pretreated at t = -1 hr; challenge D-galactosamine 18 mg and LPS 50 ng; observed 8-72 hour
Protocol: Using the method of Silverstein, (J. Exp. Med. 173, 357 (1991)) a mouse endotoxin lethality model may be used to determine if a compound of formula (1) has the ability to inhibit endotoxin-induced septic shock which is dependent on the production of Tumor Necrosis Factor-α (TNF-α). CFl mice pretreated at time (t)=-1 hr with drug are challenged with 18 mg of D-glactoseamine and 50 ng of LPS, then observed for death over an 8-72 hour period.

[3] = test system: rat macrophage antigen presentation to LEW/N rat T-cell hybridoma (Interleukin-2 production); assay: Regulation of antigen presentation to rat T-cell hybridoma (Interleukin-2 production); assay type: cell-based
Protocol: Using the method of Ku (Cellular Immunology 130,(1990)) and a Lewis (LEW/N) rat T-cell hybridoma reactive with the protein methylated bovine serum albumin (mBSA), the ability of a compound of formula (1) to regulate M.phi. antigen presentation in vitro may be measured. Peritoneal macrophages obtained from LEW/N rats are plated into tissue culture and treated with 100 ug of mBSA and drug A control is prepared similarly. After a period of 18 hours the cells are washed and incubated with the T-cell hybridoma for an additional 12 hours. Supernatants from these cultures are obtained and measured for content of Interleukin-2, a T-cell derived lymphokine which is produced by activated T-cells. […] Rat macrophage antigen presentation and the subsequent production of Interleukin-2 are inhibited when drug is administered over a concentration range from 0.1 to 100 uM as illustrated in the following table.

[4] = test system: MHC class II antigen on rat macrophages; assay: Regulation of MHC class II expression on macrophages (flow cytometry, OX-6/OX-42); assay type: cell-based
Protocol: Using the method of Edwards (J. of Cell Biochemistry 5E, 155(1991)), the ability of a compound of formula (1) to reduce Major Histocompatibility complex (MHC) class II antigen levels on macrophages (M.phi.) obtained from M.tuberculosis-treated rats may be measured. Cells obtained from treated rats are plated into tissue culture for a period of 4 hours to purify adherent cells, then treated with increasing levels of drug for a period of 18 hours. After this incubation period, cells are scraped from the dishes and stained using flow cytometry analysis with various monoclonal antibodies such as OX-6 a monoclonal antibody specific for MHC class II antigens and OX-42 a monoclonal antibody specific for rat macrophages.

| SMILES | pIC50 [1] | protection against endotoxin lethality [2] | inhibition at 0.1 µM ([3]; Rattus norvegicus, T-cell, in vitro concentration 0.1 μM) [%] | inhibition at 1 µM ([3]; Rattus norvegicus, T-cell, in vitro concentration 1.0 μM) [%] | inhibition at 10 µM ([3]; Rattus norvegicus, T-cell, in vitro concentration 10.0 μM) [%] | inhibition at 100 µM ([3]; Rattus norvegicus, T-cell, in vitro concentration 100.0 μM) [%] | Rat macrophage antigen presentation and subsequent production of Interleukin-2 ([3]; concentration range from 0.1 to 100 uM) | T-cell activation ([3]; in vitro, mBSA antigen, rat T-cell hybridoma) | OX-6/OX-42 double positive macrophages ([4]; 10 μM, 18 hours, positive control 59%) [%] | inhibition at 10 µM ([4]; Rattus norvegicus, Macrophage, 18 h, read-out: reduction of MHC II antigen expression on rat macrophages in vitro compared to positive control) [%] |
| --- | --- | --- | --- | --- | --- | --- | --- | --- | --- | --- |
| Nc1nc(Cl)nc2c1ncn2[C@@H]1CC[C@@H](O)C1 [(1R,3R)-Trans-1-[9-(6-amino-2-cholopurinyl)]cyclopentan-3-ol hydrochloride] | 5.39 | – | – | – | – | – | – | – | – | – |
| Nc1ncnc2c1ncn2[C@@H]1CC[C@@H](O)C1 [(1R,3R)-TRANS-1(9-ADENYL)CYCLOPENTAN-3-OL HYDROCHLORIDE] | 5.05 | protects against endotoxin lethality | 7.6 | 30.9 | 48.7 | 55.3 | inhibited | inhibits T-cell activation | 39 | ~33 |
| Nc1ncnc2c1ncn2[C@@H]1CCC[C@H]1O (relative stereo) [(±)-Trans-1-(9-adenyl)-2-hydroxycyclopentane, reference compound] | 4.65 | – | – | – | – | – | – | – | – | – |
